# Results taken from EP0121972A2, “N-aryl-alpha-amino-carboxamides” (JANSSEN PHARMACEUTICA N.V., priority 1983, dated 1984).
# Tested on: multifocal ventricular arrhythmia
# Assay: Antiarrhythmic effect in dogs with ventricular arrhythmia after coronary artery ligation
# Type: in vivo
# Settings: given intravenously; for minimal effective dose: Canis lupus familiaris, iv, lowest effective dose normalizing the cardial rhythm, about 16 hours after ligation of the anterior descendent branch of the left coronary artery, under neuroleptanalgesia, read-out: Antiarrhythmic effects in dogs LED in mg/kg body weight; for Antiarrhythmic effects in dogs duration: duration of action at the lowest effective dose, coronary-ligated dogs
# Description: The compounds of formula (I) and their pharmaceutically acceptable acid addition salts and possible stereochemically isomeric forms thereof show excellent antiarrhythmic properties and as such they are useful in the normalization of irregular cardial rhythms. The antiarrhythmic effect of the compounds of this invention is clearly illustrated in the following experiment in dogs. The test was carried out under neuroleptanalgesia (1 ml per 10 kg body weight of fentanyl (0.4 mg/ml) and droperidol (20 mg/ml)).
# The test compounds were given intravenously after a control period of 30 minutes.
Compound,minimal effective dose [mg/kg],Antiarrhythmic effects in dogs duration [min]
"CO[C@@H]1CCCC[C@H]1N1CCC(C(=O)Nc2c(C)cccc2C)(N(C)C)CC1 (relative stereo) [compound 18, trans-4-(dimethylamino)-N-(2,6-dimethylphenyl)-l-(2-methoxycyclo-hexyl)-4-piperidinecarboxamide]",0.08,150
"Cc1cccc(C)c1NC(=O)C1(N(C)C)CCN([C@@H]2CCCC[C@H]2O)CC1 (relative stereo) [compound 89, trans-4-(dimethylamino)-N-(2,6-dimethylphenyl)-1-(2-hydroxycyclohexyl)-4-piperidinecarboxamide]",0.04,240
Cc1cccc(C)c1NC(=O)C1(N(C)C)CCN([C@@H]2CCC[C@H]2O)CC1 (relative stereo) [compound 91],0.08,220
CCN(CC)C1(C(=O)Nc2c(C)cccc2C)CCN([C@@H]2CCC[C@H]2O)CC1 (relative stereo) [compound 92],0.31,205
CCN(CC)C1(C(=O)Nc2c(C)cccc2C)CCN([C@@H]2CCCC[C@H]2O)CC1 (relative stereo) [compound 93],0.63,30
Cc1cc(N(C)C)cc(C)c1NC(=O)C1(N(C)C)CCN([C@@H]2CCCC[C@H]2O)CC1 (relative stereo) [compound 125],0.08,165
"Cc1cccc(C)c1NC(=O)C1(N2CCOCC2)CCN([C@@H]2CCCC[C@H]2O)CC1 (relative stereo) [compound 127, trans-N-(2,6-dimethylphenyl)-l-(2-hydroxycyclohexyl)-4-(4-morpholinyl)-4-piperidinecarboxamide]",0.31,55
"Cc1cccc(C)c1NC(=O)C1(N(C)C)CCN([C@@H]2CCC[C@H]2NCc2ccccc2)CC1 (relative stereo) [compound 129, trans-4-(dimethylamino)-N-(2,6-dimethylphenyl)-l-[2-[(phenylmethyl)amino]cyclopentyl]-4-piperidinecarboxamide]",0.08,
"Cc1cccc(C)c1NC(=O)C1(N(C)C)CCN([C@@H]2CCNC[C@H]2O)CC1 (relative stereo) [compound 210, trans-4-(dimethylamino)-N-(2,6-dimethylphenyl)-3'-hydroxy-[1,4'-bipiperidine]-4-carboxamide]",0.16,25
"Cc1cccc(C)c1NC(=O)C1(N(C)C)CCN([C@H]2CNCC[C@@H]2O)CC1 (relative stereo) [compound 211, trans-4-(dimethylamino)-N-(2,6-dimethylphenyl)-4'-hydroxy-[l,3'-bipiperidine]-4-carboxamide]",0.63,160
"Cc1cccc(C)c1NC(=O)C1(N(C)C)CCN([C@H]2CCC[C@@H]2N)CC1 (relative stereo) [compound 217, trans-l-(2-aminocyclopentyl)-4-(dimethylamino)-N-(2,6-dimethylphenyl)-4-piperidinecarboxamide]",0.31,50
"CC(=O)N[C@H]1CCC[C@@H]1N1CCC(C(=O)Nc2c(C)cccc2C)(N(C)C)CC1 (relative stereo) [compound 219, trans-l-[2-(acetylamino)cyclopentyl]-4-(dimethylamino)-N-(2,6-dimethylphenyl)-4-piperidinecarboxamide]",0.08,285
"Cc1cccc(C)c1NC(=O)C1(N(C)C)CCN([C@H]2CCCC[C@@H]2NC(N)=O)CC1 (relative stereo) [compound 224, trans-1-[2-[(aminocarbonyl)-amino]cyclohexyl]-4-(dimethyJamino)-N-(2,6-dimethylphenyl)-4-piperidinecarboxamide]",0.04,130
"Cc1cccc(C)c1NC(=O)C1(N(C)C)CCN([C@@H]2CCC[C@H]2N(CCO)Cc2ccccc2)CC1 (relative stereo) [compound 225, trans-4-(dimethyl-amino)-N-(2,6-dimethylphenyl)-1-[2-[(2-hydroxyethyl)(phenylmethyl)-amino]cyclopentyl]-4-piperidinecarboxamide]",0.08,140
"Cc1cccc(C)c1NC(=O)C1(N(C)C)CCN([C@H]2CCC[C@@H]2NCCO)CC1 (relative stereo) [compound 231, trans-4-(dimethylamino)-N-(2,6-dimethylphenyl)-l-[2-[(2-hydroxyethyl)amino]cyclopentyl]-4-piperidinecarboxamide]",0.16,>230
"CCN(CC)C1(C(=O)Nc2c(C)cccc2C)CCN(C(C)C)CC1 [compound 53, 4-(diethylamino)-N-(2,6-dimethylphenyl)-1-(1-methylethyl)-4-piperidinecarboxamide]",0.63,140
"CCN(CC)C1(C(=O)Nc2c(C)cccc2C)CCN(C2CCCC2)CC1 [compound 54, 1-cyclopentyl-4-(diethylamino)-N-(2,6-dimethylphenyl)-4-piperidinecarboxamide]",0.16,240
"Cc1cccc(C)c1NC(=O)C1(N(C)C)CCNCC1 [compound 71, 4-(dimethylamino)-N-(2,6-dimethylphenyl)-4-piperidinecarboxamide]",1.25,240
"CCN(C)C1(C(=O)Nc2c(C)cccc2C)CCNCC1 [compound 73, N-(2,6-dimethylphenyl)-4-(ethylmethylamino)-4-piperidine carboxamide]",0.63,30

Compound,minimal effective dose [mg/kg],Antiarrhythmic effects in dogs duration [min]
"COC1CNCCC1N1CCC(C(=O)Nc2c(C)cccc2C)(N(C)C)CC1 (stereo not drawn) [compound 85, cis-4-(dimethylamino)-N-(2,6-dimethylphenyl)-3'-methoxy-[l,4'-bipiperidine]-4-carboxamide]",0.63,65
"Cc1cccc(C)c1NC(=O)C1(N(C)C)CCN(C2CCNCC2)CC1 [compound 86, 4-(dimethylamino)-N-(2,6-dimethylphenyl)-[1,4'-bipiperidine]-4-carboxamide]",0.16,185
"Cc1cccc(C)c1NC(=O)C1(N(C)C)CCN(CC(O)CN(Cc2ccccc2)Cc2ccccc2)CC1 (stereo not shown) [compound 96, 1-[3-[bis(phenylmethyl)amino]-2-hydroxypropyl]-4-(dimethylamino)-N-(2,6-dimethylphenyl)-4-piperidinecarboxamide]",0.31,40
Cc1cccc(C)c1NC(=O)C1(N(C)C)CCN(CC(O)CO)CC1 (stereo not shown) [compound 97],0.31,60
"Cc1cccc(C)c1NC(=O)C1(N(C)C)CCN(C2CCCC2)CC1 [compound 130, l-cyclopentyl-4-(dimethylamino)-N-(2,6-dimethylphenyl)-4-piperidinecarboxamide]",0.16,65
Cc1cccc(C)c1NC(=O)C1(N(C)C)CCN(C(C)C)CC1 [compound 132],0.16,140
CCN1CCC(C(=O)Nc2c(C)cccc2C)(N(C)C)CC1 [compound 134],0.63,100
Cc1cccc(C)c1NC(=O)C1(N(C)C)CCN(CC2CC2)CC1 [compound 135],0.16,190
CCCN1CCC(C(=O)Nc2c(C)cccc2C)(N(C)C)CC1 [compound 136],0.16,15
CCCCN1CCC(C(=O)Nc2c(C)cccc2C)(N(C)C)CC1 [compound 137],0.16,145
CCN(C)C1(C(=O)Nc2c(C)cccc2C)CCN(C(C)C)CC1 [compound 138],1.25,100
CCN(CC)C1(C(=O)Nc2c(C)cccc2C)CCN(C(C)COC)CC1 (stereo not shown) [compound 140],0.31,220
CCN(CC)C1(C(=O)Nc2c(C)cccc2C)CCN(C2CCCCC2)CC1 [compound 141],0.16,40
CCN(CC)C1(C(=O)Nc2cc(Cl)ccc2C)CCN(C(C)C)CC1 [compound 143],0.31,95
CCOC(=O)N1CCC(N2CCC(C(=O)Nc3c(C)cccc3C)(N(C)C)CC2)C(OC)C1 (stereo not shown) [compound 144],0.16,40
CCN(CC)CCCC(C)N1CCC(C(=O)Nc2c(C)cccc2C)(N(C)C)CC1 (stereo not shown) [compound 146],1.25,45
"C=CCN1CCC(C(=O)Nc2c(C)cccc2C)(N(C)C)CC1 [compound 162, 4-(dimethylamino)-N-(2,6-dimethylphenyl)-l-(2-propenyl)-4-piperidinecarboxamide]",0.31,25
"CCN(CC)CCN1CCC(C(=O)Nc2c(C)cccc2C)(N(C)C)CC1 [compound 163, 1-[2-(diethylamino)ethyl]-4-(dimethylamino)-N-(2,6-dimethylphenyl)-4-piperidinecarboxamide]",0.31,220
